Test results from patent US20100204460A1, “NATURAL BRASSINOSTEROIDS FOR USE FOR TREATING HYPERPROLIFERATION, TREATING PROLIFERATIVE DISEASES AND REDUCING ADVERSE EFFECTS OF STEROID DYSFUNCTION IN MAMMALS, PHARMACEUTICAL COMPOSITION AND ITS USE” (priority 2007, published 2010).
Like-named read-outs stand apart in the source and are kept apart here.

Assays:
[1] = test system: LNCaP cells; assay: Cell cycle distribution by flow cytometry, LNCaP; assay type: cell-based; details: IC50, 24 h; for Apoptosis subG1 fraction: control 8%; for Cell cycle distribution S: control 14%; for Cell cycle distribution G2/M: control 16%; for Cell cycle distribution G1: control 70%
From the text: In the MCF-7 breast cancer cell line that has been the most widely studied experimental cell system, the typical growth inhibitory response to antiestrogens is decrease in the proportion of cells synthesising DNA (S phase) after antiestrogen treatment. This decrease in S phase coincides with an increase in the proportion of cells in G0/G1 phase. The activity of the androgen receptor (AR) is also regulated by alterations in cell signaling. There has been reported ligand independent activation of AR in prostate cancer cells by different growth factors. As the AR can be activated in the absence of hormone, it appears that the conditions may be more restricted than those observed for ER. Use of physiologic doses of ligand (dihydrotestosterone, DHT) is of importance as the LNCaP cells proliferate only at DHT concentration of 10^−9 M or lower. […] In contrast to proliferation, transactivation of AR specific target genes (e.g. PSA) continues to increase with DHT doses of 10^−10 M and higher. It might be accepted for estrogen or androgen receptors as stronger cytotoxic activities of brassinosteroids 9 or 6 on hormone-sensitive (MCF-7, LNCaP) compared to hormone-insensitive (MDA-MB-468, DU-145) cell lines were found. Therefore we explored the possibility of cell cycle perturbation by BRs in different cancer cell lines. Flow cytometry was used to evaluate the number of cells in the particular phases of the cell cycle, including subG1 peak detection. Control and treated cells were washed twice with cold PBS and centrifuged at 360×g for 10 min at 4° C., and fixed with chilled ethanol (70%; v/v) by low-speeded vortexing. For detection of DNA content analysis, propidium iodide staining was used. The cells were analyzed using a FACSCalibur flow cytometer (BD Biosciences, San Jose, Calif.).
Flow-cytometric detection of apoptosis. Several studies have declared that the induction of apoptosis may be cell cycle-dependent. Therefore, in our next series of experiments, we tested if brassinosteroids 9 or 6 cause apoptosis of the breast and prostate cancer cells via cell cycle blockage. From this reason we carried out DNA cell cycle analysis by flow cytometry based on detection of endonucleolytic DNA degradation that results in extraction of low molecular weight DNA from the cells. […] The subG1 peak containing apoptotic bodies was however not observed in MCF-7 cells.

[2] = test system: cultured mouse hybridoma cells; details: cited from earlier work; for density of viable cells / growth: mouse hybridoma cells, concentrations of 10^−13 mol/L and 10^−12 mol/L
[3] = test system: normal and cancer cell lines of different histopathological origin; assay: Calcein AM cytotoxicity assay, summary statements over the cell line panel; assay type: cell-based; details: versus 28-homobrassinolide 2
Description: Stock solutions ([…]) were prepared by dissolving relevant quantity of substance in DMSO cultivation media (DMEM, RPMI 1640, F-12 medium), fetal bovine serum (FBS), L-glutamine, penicillin, and streptomycin were purchased from Sigma (MO, USA). 3-(4,5-Dimethylthiazol-2-yl)-2,5-diphenyltetrazolium bromide (MTT) was from Serva Electrophoresis (Heidelberg, Germany). Monoclonal mouse anti-bromodeoxyuridine (BrdU) intibody was obtained from DakoCytomation (Glostrup, Denmark). Calcein AM was obtained from PAA Laboratories GmbH (Pasching, Austria). The screening cell lines (T-lymphoblastic leukaemia cell line CEM; breast carcinoma cell line MCF-7 (estrogen-sensitive), breast adenocarcinoma cell line MDA-MB 468 (cell lines LNCaP (androgen-sensitive), prostate carcinoma cell line DU-145 ([…]), lung carcinoma cell line A-549, chronic myelogenous leukemia cell line K562, multiple myeloma cell line RPMI 8226, cervical carcinoma cell line HeLa, malignant human melanoma cell line G361, osteosarcoma cell line HOS, and normal human fibroblasts (BJ) were obtained from the American Type Culture Collection (Manassas, Va., USA). MCF-7 cells were cultured in F-12 medium (Sigma, MO, USA). LNCaP cells were cultured in RPMI 1640 medium (GIBCO, USA). All other cells were cultured in DMEM medium (Sigma, MO, USA). All used media were supplemented with 10% heat-inactivated fetal bovine serum, 2 mmol/L L-glutamine, 1% penicillin/streptomycin. The cell lines were maintained under standard cell culture conditions at 37° C. and 5% CO2 in a humid environment. Cells were subcultured twice or three times a week using the standard trypsinization procedure (Sigma, USA).
The cell suspension of approximate density of 1.25×10^5 cells/mL was redistributed into 96-well microtitre plates and after 12 h of stabilization the tested Brassinosteroids (BRs) were added in different concentrations. BRs were dissolved in DMSO. Control cultures were treated with DMSO alone. The final concentration of DMSO in the reaction mixture never exceeded 1%. Tested compounds in given concentrations were added at time zero in 20 μL aliquots to the microtiter plate wells. Usually, each test compound was evaluated at six 4-fold dilutions. In routine testing, the highest well concentration was 50 μmol, but it can be the matter of change dependent on the agent. Cultivation proceeds 96 h at 37° C., the cells were incubated with Calcein AM solution (Molecular Probes) for 1 h. Fluorescence (OD) of viable cells was quantified with Fluoroscan Ascent (Microsystems). The cell survival (IC50) was calculated using the following equation: IC50=(ODdrug exposed well/mean ODcontrol wells)×100%. Each compound was tested in triplicates and the test was repeated at least 3 times. The IC50 value, corresponding to drug concentration lethal to 50% of the tumor cells, was calculated from the obtained dose response curves.
We investigated effects of brassinosteroid on viability of normal and cancer cell lines of different histopathological origin. To evaluate the cytotoxic properties of several BRs and some related steroids, we used T-lymphoblastic leukaemia cell line CEM, breast carcinoma cell line MCF-7, lung carcinoma cell line A-549, chronic myeloid leukaemia cell line K562, multiple myeloma cell line RPMI 8226, cervical carcinoma cell line HeLa, malignant melanoma cell line G361, osteosarcoma cell line HOS, and normal human fibroblasts BJ. The cells were exposed to six 4-fold dilutions of each drug for 72 h to determinate number of surviving cells.

[4] = test system: herpes simplex virus type 1 (HSV-1); details: cited from earlier work
[5] = test system: arena viruses; details: cited from earlier work
[6] = test system: measles virus (MV); details: cited from earlier work

Row | SMILES | Apoptosis subG1 fraction [1] | Cell cycle distribution S [1] | Cell cycle distribution G2/M [1] | Cell cycle distribution G1 [1] | S-phase cells ([2]; cultured mouse hybridoma cells) | fraction of the cells in G0/G1 phase ([2]; cultured mouse hybridoma cells) | intracellular antibody level ([2]; cultured mouse hybridoma cells) | value of mitochondrial membrane potential ([2]; cultured mouse hybridoma cells) | density of viable cells / growth ([2]; listed as 6) | density of viable cells / growth ([2]; listed as 24-epibrassinolide) | strength of growth inhibitory response relative to 28-homobrassinolide 2 [3] | in vitro antiviral activity [4] | in vitro antiviral activity [5] | in vitro antiviral activity [6]
1 | CC(C)[C@@H](C)[C@@H](O)[C@H](O)[C@@H](C)[C@H]1CC[C@H]2[C@@H]3COC(=O)[C@H]4C[C@H](O)[C@H](O)C[C@]4(C)[C@H]3CC[C@]12C [Brassinosteroid 6, 24-Epibrassinolide] | 47% | 5% | 9% | 86% | decrease of S-phase cells | increase in the fraction of the cells in G0/G1 phase | decrease of intracellular antibody level | increase in the value of mitochondrial membrane potential | significant positive effect | significantly higher |  |  |  | 
2 | CC[C@@H](C(C)C)[C@@H](O)[C@H](O)[C@@H](C)[C@H]1CC[C@H]2[C@@H]3CC(=O)[C@H]4C[C@H](O)[C@H](O)C[C@]4(C)[C@H]3CC[C@]12C [Brassinosteroid 9, 28-Homocastasterone] | 18% | 2% | 4% | 94% |  |  |  |  |  |  | about 3 times | in vitro antiviral activity | in vitro antiviral activity | in vitro antiviral activity
